Where “and” joins values, the source holds several entries; their conditions need not be identical. Equal values may be shown once. Blank lines part the entries; values can stand above or below the compound they belong to.
Key:
HL-60 cells [1] = test: MTT cytotoxicity assay, HL-60; type: cell-based, human; conditions: Homo sapiens, HL-60, 48 h, MTT, 46 h + 2 h incubation
Protocol: (§1) The first stage of the study used the MTT viability test to determine the cytotoxicity of ten compounds, i.e., 3-arylidenechromanone, 3-arylideneflavanone, spirochromanone and spiro- flavanone analogues, against four human cancer cell lines: HL-60, NALM-6, WM-115 and COLO-205.
(§2) Cytotoxicity was tested against human skin melanoma cells (WM-115, ECACC, Salisbury, UK), two human leukemia cell lines, viz. promyelocytic leukemia (HL-60) and lymphoblastic leukemia (NALM-6), and human colon adenocarcinoma cells (COLO-205). The cell lines COLO-205, WM-115 and HL-60 used in this work came from the ATCC American Type Culture Collection (Manassas, VA, USA), whereas the NALM-6 cell line was purchased from the German Collection of Microorganisms and Cell Cultures (Braunschweig, Germany). The leukaemia cells and colon adenocarcinoma were cultured in RPMI 1640 medium (Invitrogen, Grand Island, NY, USA) supplemented with 10% fetal bovine serum (FBS; Invitrogen) and gentamicin (25 µg/mL; KRKA, Novo Mesto, Slovenia). For melanoma WM-115 cells, Dulbecco’s minimal essential medium (DMEM; Invitrogen) was used. All cell lines were cultured at 37 °C in a humidified atmosphere of 5% CO2 in air.
(§3) For all experiments, the studied compounds were dissolved in DMSO (Sigma-Aldrich) and were further diluted in culture medium to obtain <0.1% DMSO concentration. In each experiment, controls with and without 0.1% DMSO were performed. The cytotoxicity of all compounds and of the reference compounds 4-chromanone and 3-benzylideneflavanone was determined by the MTT assay, i.e., 3-(4,5-dimethylthiazol-2-yl)-2,5-diphenyltetrazolium bromide (Sigma, St. Louis, MO, USA), which measures cellular dehydrogenase activity. Exponentially growing cells were seeded a day before the experiment onto a 96-well microplates (Nunc, Roskilde, Denmark) at a density up to 6–8 × 10^3 cells/well (depending on the cell line). Subsequently, various concentrations of the studied compounds freshly prepared in DMSO and diluted with complete culture medium were added. All compounds were tested for their cytotoxicity at a final concentration of 10^−7–10^−3 M. After 46 h of incubation with the studied compounds, the cells were treated with the MTT reagent and incubation was continued for another two hours. MTT – formazan crystals were dissolved in 20% sodium dodecyl sulphate (SDS, Sigma-Aldrich) and 50% DMF (Sigma-Aldrich) at pH 4.7; following this, absorbance was read at 570 nm on a multifunctional Victor ELISA-plate reader (Perkin Elmer, Turku, Finland). The IC50 values, i.e., the concentration of the test compound required to reduce the cell survival fraction to 50% of controls, were calculated from concentration-response curves and used as a measure of the sensitivity of the cells to a given treatment. As a control, cultured cells were grown in the absence of drugs. The data points represent the means of at least five to ten repeats ± standard deviation (S.D.).

NALM-6 cells = test: MTT cytotoxicity assay, NALM-6; type: cell-based, human; conditions: Homo sapiens, 46 h + 2 h incubation
Protocol: as §1, §2, §3

COLO-205 cells = test: MTT cytotoxicity assay, COLO-205; type: cell-based, human; conditions: Homo sapiens, COLO 205, 48 h, 46 h + 2 h incubation
Protocol: as §1, §2, §3

[2] = Lipophilicity (logP) by RP-TLC; conditions: RP-18 F254S TLC plates
From the text: Lipophilicity is one of the most important physicochemical properties in pharmaceutical research. It can be considered a key determinant of the pharmacokinetic properties of a drug. It is commonly measured by the partition coefficient between water and n-octanol, being expressed as logP [14]. […] Knowledge of the partition coefficient is valuable: it is frequently used in structure–activity relationship (SAR) and quantitative structure–activity relationship (QSAR) studies. The experimental lipophilicity of the synthesized compounds, viz. benzylideneflavanones, benzylidenechromanones and spiropyrazolines, was determined using RP-TLC. […] It is important to examine the relationship between structure of the compound and its lipophilicity and cytotoxicity.
The RP-TLC experiments were performed on TLC plates (5 × 10 cm) RP-18 F254S (Merck, Darmstadt, Germany). The synthesized compounds were dissolved in N,N-dimethylformamide DMF (2 mg/mL). […] A DMF-water solvent system was used as mobile phase. […] All experiments were performed at room temperature. The logP parameter was calculated using the equation from the calibration curve.

erythrocytes = test: Red blood cell morphology (phase-contrast microscopy); type: cell-based; conditions: 2% erythrocyte suspension, 37 °C, 1 h, phase contrast 400×
Protocol: Studies on erythrocyte morphology complement the erythrotoxicity studies because they provide information on potential immediate interactions of the tested compounds with the erythrocyte lipid bilayer, and the possibility of creating pathological forms of erythrocytes, which are not able to carry oxygen. The effects of the synthesized compounds, and the two reference compounds chromanone and flavanone, on the morphology of erythrocytes is shown in Figure 6. Briefly, 2% RBC suspension was incubated with 0.9% NaCl (control samples) or tested compounds at various concentrations corresponding to their activity towards cancer cell lines.
A 2% erythrocyte suspension was incubated at 37 °C for one hour with various concentrations of synthesized compounds. The morphology of the RBCs was examined by means of a phase contrast Opta-Tech inverted microscope, at 400× magnification, equipped with software (OptaView 7) for image analysis.

WM-115 cells = test: MTT cytotoxicity assay, WM-115; type: cell-based, human; conditions: Homo sapiens, 46 h + 2 h incubation
Protocol: as §1, §2, §3

HL-60 cells [3] = test: Cell cycle analysis by flow cytometry (propidium iodide); type: cell-based, human; conditions: for cell cycle, G1, mean / cell cycle, G2/M, mean / cell cycle, S, mean: mean of n=2; for cell cycle distribution, G1 / cell cycle distribution, G2 / cell cycle distribution, G2/M: HL-60, 20 h, mean ± SD, n = 2
Protocol: The next stage examined the effects of the selected compounds on cell cycle progression in HL-60 leukemia cells. […] One million HL-60 (subline CCL 240; cell type: promyeloblast) cells in 3 mL of RPMI 1640 supplemented with 20% FBS were seeded on 6-well plate. […] Fixed cells were stored in −20 °C for 2–3 days. Before analysis, cells were centrifuged (10 min, 1500 rpm, 4 °C) and washed twice with cold PBS. After the second wash, the cells were suspended in 1mL of PBS containing 100 μg of RNase A and incubated in 37 °C for 10 min. Next, 5 μL of solution of propidium iodide (1 mg/mL) was added to each sample and incubated in dark for 30 min at RT. Stained cells were analyzed by flow cytometry (FACS Calibur, BD Biosciences, San Jose, CA, USA). Data from 10,000 gated cells were collected using CellQuestPro software (Ver 6.0, Becton Dickinson) and cell cycle analysis was performed with ModFit LT software (Ver 3.2, Verity Software House, Topsham, ME, USA).

[4] = system: red blood cells (RBC membrane integrity); test: Red blood cell lysis assay; type: cell-based; conditions: 2% RBC suspension, 37 °C, 1 h
From the text: All synthesized compounds with potential biological activity have to be tested for blood compatibility since xenobiotics will react with blood cells upon administration. In this case, biocompatibility refers to the quantification of cellular and plasma components of the blood. The measurement of the integrity of RBC membrane is considered a simple and reliable method for estimating hemocompatibility.
The studies on biological material were approved by the Bioethics Committee of the Medical University of Lodz, Poland (RNN/109/16/KE). The blood samples were obtained from healthy donors at the Blood Donation Centre in Lodz. The procedure for plasma preparation for erythrotoxicity studies was described previously. The influence of synthesized compounds as well as two reference compounds flavanone and chromanone on RBC membrane integrity was performed by lysis assay which was conducted according to our previous protocol. Briefly, 2% RBC suspension in 0.9% NaCl was incubated at 37 °C for one hour with the tested compounds at various concentrations corresponding to their activity towards cancer cell lines or 0.9% NaCl (control). The samples were centrifuged at 3000 rpm for 10 min and the absorbance of the supernatant was measured at 550 nm. The results are presented as percentage of haemolysis where a sample containing 10 μL of 2.0% v/v Triton X-100 was regarded as a positive control contributing to 100% of haemolysis. A sample containing saline solution represented spontaneous haemolysis of RBCs (control). The studies were performed on four biological samples obtained from different blood donors (n = 4). The results are presented as mean ± standard deviation (SD). The coefficient of variability for the method was counted: W = 9.51%, n = 5.

[5] = Figure S3, HL-60, 0.5 × IC50 (µM: quercetin 29, 1 1.5, 7 18, 10 4.7, 11 4.5, 12 6)
[6] = Figure S3, HL-60, 0.5 × IC50, each of two repetitions
[7] = Figure S3, HL-60, 1 × IC50 (µM: quercetin 58, 1 3, 7 35, 10 9.4, 11 9, 12 12)
[8] = Figure S3, HL-60, 1 × IC50, each of two repetitions
[9] = 0.5 × IC50 (µM: quercetin 29, 2 1.5, 7 18, 12 6, 11 4.5, 10 4.7)
[10] = 1 × IC50 (µM: quercetin 58, 2 3, 7 35, 12 12, 11 9, 10 9.4)

chromatographic logP [2]: 4.9
SMILES: O=C1/C(=C/c2ccccc2)C(c2ccccc2)Oc2ccccc21 (stereo not drawn) [Compound 5, (E)-3-benzylidene-2-phenylchroman-4-one]
IC50 (HL-60 cells [1]): 33.7 ± 3.87 µM
IC50 (NALM-6 cells; NALM-6, 48 h, MTT): 27 ± 3.1 µM
IC50 (COLO-205 cells): 77.1 ± 1.9 µM
erythrocyte morphology (in words) (erythrocytes): echinocytes accounted for the major part of erythrocytes
IC50 (WM-115 cells; WM-115, 48 h, MTT): 47.4 ± 4.62 µM

chromatographic logP [2]: 5.83
SMILES: COc1cccc(/C=C2/C(=O)c3ccccc3OC2c2ccccc2)c1 (stereo not drawn) [Compound 9, (E)-3-(3-methoxybenzylidene)-2-phenylchroman-4-one]
IC50 (HL-60 cells [1]): 35.9 ± 2.96 µM
IC50 (NALM-6 cells; NALM-6, 48 h, MTT): 15.7 ± 6.23 µM
IC50 (COLO-205 cells): 170 ± 3.81 µM
erythrocyte morphology (in words) (erythrocytes): echinocytes accounted for the major part of erythrocytes
IC50 (WM-115 cells; WM-115, 48 h, MTT): 16.9 ± 3.78 µM

SMILES: O=c1c(O)c(-c2ccc(O)c(O)c2)oc2cc(O)cc(O)c12 [Quercetin, reference compound]
IC50 (HL-60 cells [1]): 58 ± 4 µM
IC50 (NALM-6 cells; NALM-6, MTT): 77.1 ± 7.8 µM
cell cycle, G1, mean (HL-60 cells [3]; [5]): 14,26%
cell cycle, G2/M, mean (HL-60 cells [3]; [5]): 60,76%
cell cycle, S, mean (HL-60 cells [3]; [5]): 24,99%
cell cycle, G1, single repetitions (HL-60 cells [3]; [6]): 12,59% and 15,93%
cell cycle, G2/M, single repetitions (HL-60 cells [3]; [6]): 60,50% and 61,01%
cell cycle, S, single repetitions (HL-60 cells [3]; [6]): 23,57% and 26,40%
cell cycle, G1, mean (HL-60 cells [3]; Figure S3, HL-60, 1 × IC50 (µM in parenthesis: quercetin 58, 1 3, 7 35, 10 9.4, 11 9, 12 12)): 11,59%
cell cycle, G2/M, mean (HL-60 cells [3]; [7]): 49,04%
cell cycle, S, mean (HL-60 cells [3]; [7]): 39,38%
cell cycle, G1, single repetitions (HL-60 cells [3]; [8]): 12,78% and 10,40%
cell cycle, G2/M, single repetitions (HL-60 cells [3]; [8]): 46,07% and 52,00%
cell cycle, S, single repetitions (HL-60 cells [3]; [8]): 41,15% and 37,60%
cell cycle distribution, G1 (HL-60 cells [3]; [9]): 14.3 ± 2.4%
cell cycle distribution, G2 (HL-60 cells [3]; [9]): 25.0 ± 2.0%
cell cycle distribution, G2/M (HL-60 cells [3]; [9]): 60.8 ± 0.4%
cell cycle distribution, G1 (HL-60 cells [3]; [10]): 11.6 ± 1.7%
cell cycle distribution, G2 (HL-60 cells [3]; [10]): 39.4 ± 2.5%
cell cycle distribution, G2/M (HL-60 cells [3]; [10]): 49.0 ± 4.2%
cells arrested in G2/M phase (HL-60 cells [3]; HL-60, concentrations of IC50 and 0.5 × IC50): 50–60%
IC50 (WM-115 cells; WM-115, MTT): 178 ± 21.5 µM

erythrocyte morphology (in words) (erythrocytes): echinocyte formation was observed
SMILES: O=C1CC(c2ccccc2)Oc2ccccc21 (stereo not drawn) [flavanone, reference compound]
effect on RBC hemolysis / erythrocyte membrane integrity (in words) [4]: Neither flavanone nor chromanone was found to have any unfavourable effect on the erythrocyte membrane over the whole concentration range
